Test system: JAK2/STAT5
Experiment: JAK2/STAT5 activation in human primary triple-negative breast tumors grown in immunodeficient mice
Assay type: in vivo
Conditions: 30 mg/kg BEZ235 for 4 days vs vehicle
Description: FIG. 4. BEZ235 treatment activates JAK2/STAT5 and IL-8 secretion in human primary triple-negative breast tumors Immunoblots of lysates from primary triple-negative breast tumors grown in immunodeficient mice and treated for 4 days with 30 mg/kg BEZ235 or vehicle (VHC). pJAK2 levels were measured in triplicate by ELISA and normalized to total JAK2 levels (Y-axis).
Cells for Western Blotting and ELISA were lysed with RIPA buffer. […]
For assessing pJAK2 levels, an ELISA assay (Tyr1007/1008, Invitrogen) was applied because of cross-reactivity of all pJAK2 antibodies tested. Interleukin-8 levels in RIPA lysates, cell culture supernatants and mouse tail vein blood plasma were measured by ELISA, as well (Biolegend). […]

`Cn1c(=O)n(-c2ccc(C(C)(C)C#N)cc2)c2c3cc(-c4cnc5ccccc5c4)ccc3ncc21` [COMPOUND A, 2-methyl-2-[4-(3-methyl-2-oxo-8-quinolin-3-yl-2,3-dihydro-imidazo[4,5-c]quinolin-1-yl)-phenyl]-propionitrile] was tested, and the “JAK2/STAT5 activation (pJAK2 normalized to total JAK2, immunoblots)” value was “activates”.
